The values below come from PubChem BioAssay (NCI).

Test systems include NCI-H522 lung; SNB-78 CNS; LXFL 529 NSCLC; OVCAR-3 ovarian; M14 melanoma; DMS 114 small cell lung; KM12 colon; HOP-62 NSCLC; MDA-N; MDA-MB-435; MDA-MB-231 breast; HS 578T breast.
Holding throughout (assay): NCI tumour cell line growth inhibition, 48 h

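Exposure lasted 48 hours, with cells grown in 96-well plates and compounds tested at five concentrations. TGI: concentration producing complete growth inhibition.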

`O=C1C(=O)c2ccccc2C(O)=C1CCCc1ccc(Oc2ccccc2)cc1`: the TGI was 34.2 µM in the assay with NCI-H522 lung; 97.3 µM with SNB-78 CNS; more than 100 µM in the assay with LXFL 529 NSCLC; 24.9 µM in the assay with OVCAR-3 ovarian; 24.5 µM in the assay on M14 melanoma; 23.5 µM in the assay with DMS 114 small cell lung. Further, the TGI with KM12 colon is more than 100 µM; in the assay with HOP-62 NSCLC it was 23.2 µM.
With `CCOC(=O)Cc1cc(OC)c(OC)cc1/C(Cl)=C(\C=O)c1ccc(OC)c(OC)c1`, the TGI is 81.1 µM with SNB-78 CNS; 28.1 µM in the assay with OVCAR-3 ovarian; 32.1 µM with M14 melanoma; 48.8 µM in the assay with DMS 114 small cell lung; 46.9 µM with HOP-62 NSCLC.
Take `CC1(c2ccc[n+](Cc3ccccc3)c2)OCCO1`: the TGI with NCI-H522 lung, in the assay with SNB-78 CNS, in the assay with LXFL 529 NSCLC, in the assay on OVCAR-3 ovarian, in the assay with M14 melanoma and with KM12 colon was more than 100 µM throughout. Besides, in the assay on HOP-62 NSCLC, the TGI was more than 100 µM.
`COc1cc(C(C)c2cc3c(cc2OCCO)OCO3)cc(OC)c1OC` (centres undefined): the TGI is 2.93 µM in the assay on NCI-H522 lung; more than 100 µM in the assay with SNB-78 CNS; more than 100 µM with LXFL 529 NSCLC; more than 100 µM in the assay on M14 melanoma; 3.77 µM with DMS 114 small cell lung; more than 100 µM with HOP-62 NSCLC.
Take `COc1ccc(C2N(NC(=O)c3ccncc3)C(=O)CS2(=O)=O)cc1F` (centres undefined): the TGI in the assay with NCI-H522 lung, with SNB-78 CNS, in the assay with LXFL 529 NSCLC, in the assay on M14 melanoma, in the assay with DMS 114 small cell lung and with KM12 colon was more than 100 µM in each case. Also, the TGI in the assay on HOP-62 NSCLC is more than 100 µM.
For `COc1ccc(C(=O)Cc2ccc(Br)cc2)cc1OC`, the TGI in the assay on NCI-H522 lung, with SNB-78 CNS, with LXFL 529 NSCLC, in the assay with OVCAR-3 ovarian, with M14 melanoma and in the assay on DMS 114 small cell lung was more than 100 µM in each case. The TGI with HOP-62 NSCLC is more than 100 µM.
In the case of `COc1cc2cc[n+]3c(C)c4cc(OC)c(OC)cc4c([O-])c3c2cc1OC`, the TGI with NCI-H522 lung was 42 µM; in the assay with SNB-78 CNS, more than 100 µM; in the assay with LXFL 529 NSCLC it was more than 100 µM; in the assay on OVCAR-3 ovarian it was 24.7 µM; in the assay with M14 melanoma, more than 100 µM; in the assay with DMS 114 small cell lung it was 62.1 µM. In addition, the TGI in the assay with KM12 colon and in the assay with HOP-62 NSCLC was more than 100 µM throughout.
Regarding `N#Cc1ccccc1-c1nc2c3c(c(N)ccc3n1)C(=O)c1ccccc1-2`, the TGI in the assay on NCI-H522 lung, with OVCAR-3 ovarian, with M14 melanoma, in the assay with MDA-N, in the assay with MDA-MB-435 and in the assay on MDA-MB-231 breast was more than 100 µM throughout. Besides, the TGI in the assay on KM12 colon, with HS 578T breast and in the assay on HOP-62 NSCLC was more than 100 µM throughout.
As for `COC1OC2COC1(OC)C1OC(C)(C)OC21` (centres undefined), the TGI in the assay on NCI-H522 lung, in the assay with OVCAR-3 ovarian, in the assay with M14 melanoma, with MDA-N, in the assay with MDA-MB-435 and in the assay on MDA-MB-231 breast was more than 100 µM in each case. For the same compound, the TGI with KM12 colon, with HS 578T breast and with HOP-62 NSCLC was more than 100 µM each time.
Turning to `CC1(O)CC(=O)c2c(cc3ccc(-c4c5c(c(O)c6c(O)cccc46)C(=O)CC(C)(O)C5)c(O)c3c2O)C1` (centres undefined), the TGI in the assay on NCI-H522 lung turned out to be 1.12 µM; with OVCAR-3 ovarian it was 0.646 µM; in the assay on M14 melanoma, 7.11 µM; in the assay with MDA-N, 14.2 µM; with MDA-MB-435 it was 1.97 µM; in the assay on MDA-MB-231 breast, 3.93 µM. Also, the TGI turned out to be 0.24 µM in the assay on KM12 colon, 4.4 µM in the assay on HS 578T breast and 1.55 µM in the assay on HOP-62 NSCLC.
Take `CCCCCC(C)SC1(C(=O)OC)CC(OC(C)=O)C(NC(C)=O)C([C@H](OC(C)=O)[C@@H](COC(C)=O)OC(C)=O)O1` (some centres undefined): the TGI with NCI-H522 lung, in the assay on OVCAR-3 ovarian, with M14 melanoma, with MDA-N, in the assay with MDA-MB-435 and in the assay with MDA-MB-231 breast was more than 100 µM throughout. Also, the TGI is more than 100 µM in the assay on KM12 colon, 97 µM with HS 578T breast and more than 100 µM with HOP-62 NSCLC.
Consider `Cc1c(NC(=O)CSC(=S)N2CCN(Cc3ccccc3)CC2)c(=O)n(-c2ccccc2)n1C`, for which the TGI in the assay with NCI-H522 lung, in the assay on OVCAR-3 ovarian, in the assay on M14 melanoma, in the assay with MDA-N, with MDA-MB-435 and with MDA-MB-231 breast was more than 100 µM each time. The TGI in the assay on KM12 colon, in the assay on HS 578T breast and with HOP-62 NSCLC was more than 100 µM in each case.
With `O=C(O)c1ccn(-c2cccc(-n3ccc(C(=O)O)n3)n2)n1`, the TGI with NCI-H522 lung, with OVCAR-3 ovarian, with M14 melanoma, with MDA-N, with MDA-MB-435 and with MDA-MB-231 breast was more than 100 µM in each case. For the same compound, the TGI with KM12 colon, in the assay on HS 578T breast and in the assay with HOP-62 NSCLC was more than 100 µM in each case.
In the case of `CCOc1cc(C2CC(c3ccc(NS(=O)(=O)c4cc([N+](=O)[O-])ccc4C)cc3)=NN2c2ccc([N+](=O)[O-])cc2[N+](=O)[O-])ccc1O` (centres undefined), the TGI with NCI-H522 lung was 34.2 µM; in the assay with OVCAR-3 ovarian, 29 µM; in the assay on M14 melanoma it was 31.6 µM; in the assay on MDA-N, 39.5 µM; in the assay on MDA-MB-435 it was more than 100 µM; in the assay on MDA-MB-231 breast, 20.6 µM. Further, the TGI with KM12 colon was more than 100 µM; with HS 578T breast it was 57.4 µM; in the assay on HOP-62 NSCLC, 27.3 µM.
As to `COc1cc(/C=C2/C[C@H]3[C@@H]4CC=C5C[C@@H](OC(C)=O)CC[C@]5(C)[C@H]4CC[C@]3(C)NC2=O)cc(OC)c1OC`, the TGI is 59.4 µM with NCI-H522 lung; more than 100 µM in the assay on OVCAR-3 ovarian; more than 100 µM in the assay on M14 melanoma; more than 100 µM with MDA-N; more than 100 µM in the assay with MDA-MB-435; 62.5 µM in the assay with MDA-MB-231 breast. Besides, the TGI in the assay on KM12 colon was more than 100 µM; in the assay with HS 578T breast, 74.2 µM; with HOP-62 NSCLC, 73.1 µM.
As for `CC1=NN(c2nc(N)nc(/C(C#N)=C/c3cccn3-c3cc(Cl)cc(Cl)c3)n2)C(C)(C)C1`, the TGI with NCI-H522 lung, in the assay on OVCAR-3 ovarian, with M14 melanoma, in the assay with MDA-N, in the assay on MDA-MB-435 and with MDA-MB-231 breast was more than 100 µM throughout. The TGI in the assay with KM12 colon is more than 100 µM; in the assay with HS 578T breast, more than 100 µM; with HOP-62 NSCLC it was 67.3 µM.
